Measured values taken from patent US12421279B2, “Cyclic peptide antiviral agents and methods using same” (priority 2016, dated 2025).
Values joined by “and” are separate entries in the source; they are usually repeats but may differ in a detail not shown here. Identical values can stand only once. Like-named read-outs stand apart in the source and are kept apart here. *1 amine or outer side, *2 acyl side, *3 side chain or, on linkers, in order; H or OH if unused. Where a SMILES comes first, the peptide text is derived from it. Bridges are numbered along the chain shown (N, C = ends). [ ]: non-standard residue; d: D form. X2 = O=C([C@@H]1C[C@H](n2cc([C]34[CH]5[CH]6[CH]7[CH]3[Fe]6754389%10[CH]4[CH]3[CH]8[CH]9[CH]4%10)nn2)CN1[*:1])[*:2]; X17 = O=C([C@@H]1C[C@H](n2cc(C3=CC=C[CH]3[Fe][CH]3C=CC=C3)nn2)CN1[*:1])[*:2]; X15 = CC(C)(C)c1ccc(-c2cn([C@H]3C[C@@H](C(=O)[*:2])N([*:1])C3)nn2)cc1; X18 = O=C([C@@H]1C[C@H](n2cc(-c3ccc(-c4ccccc4)cc3)nn2)CN1[*:1])[*:2]; X1 = O=C([C@@H]1C[C@H](n2cc(-c3ccc(-c4cccs4)cc3)nn2)CN1[*:1])[*:2]; X16 = CC(C)c1ccc(-c2cn([C@H]3C[C@@H](C(=O)[*:2])N([*:1])C3)nn2)cc1; X11 = Cc1ccc(Cc2cn([C@H]3C[C@@H](C(=O)[*:2])N([*:1])C3)nn2)c(C)c1; X19 = Cc1cc(C)cc(Cc2cn([C@H]3C[C@@H](C(=O)[*:2])N([*:1])C3)nn2)c1; X4 = O=C([C@@H]1C[C@H](n2cc(C3C4CC5CC(C4)CC3C5)nn2)CN1[*:1])[*:2]; X6 = O=C([C@@H]1C[C@H](n2cc(-c3ccc(-c4cccs4)s3)nn2)CN1[*:1])[*:2]; X12 = O=C([C@@H]1C[C@H](n2cc(Cc3ccc(Cl)c(F)c3)nn2)CN1[*:1])[*:2]; X13 = O=C([C@@H]1C[C@H](n2cc(-c3cc4ccccc4cn3)nn2)CN1[*:1])[*:2]; X20 = Cc1ccc(Cc2cn([C@H]3C[C@@H](C(=O)[*:2])N([*:1])C3)nn2)cc1C; X10 = Cc1ccc(Cc2cn([C@H]3C[C@@H](C(=O)[*:2])N([*:1])C3)nn2)cc1; X9 = CCc1ccc(-c2cn([C@H]3C[C@@H](C(=O)[*:2])N([*:1])C3)nn2)cc1; X7 = Cc1cccc(Cc2cn([C@H]3C[C@@H](C(=O)[*:2])N([*:1])C3)nn2)c1; X8 = O=C([C@@H]1C[C@H](n2cc(Cc3ccc(Cl)cc3)nn2)CN1[*:1])[*:2]; X3 = Cc1ccccc1Cc1cn([C@H]2C[C@@H](C(=O)[*:2])N([*:1])C2)nn1; X5 = O=C([C@@H]1C[C@H](n2cc(Cc3ccc(I)cc3)nn2)CN1[*:1])[*:2]; X14 = O=C([C@@H]1C[C@H](n2cc(Cc3ccccc3)nn2)CN1[*:1])[*:2]; Suc = O=C(CCC(=O)[*:2])[*:1]

What was measured:
[1] = tested on: HIV-1Bal.01
[2] = tested on: HOS.T4.R5 cells; details: highest concentrations used 100 μM, 24 h post-exposure
Description: cPTs 36 and 37 were tested for cytotoxicity in vitro with HOS.T4.R5 cells. The latter were seeded at […] per well and incubated with peptides as described elsewhere herein for the infection inhibition assays. Cell viability was determined using the tetrazolium salt premix reagent WST-1 from TaKaRa Bio, Inc., by following the manufacturer's protocol. The formazan product was measured 24 h post-exposure using a microplate reader (Molecular Devices) at an absorbance wavelength of 450 nm.

[3] = biological target: T1, wild type gp120 YU-2 (Human immunodeficiency virus type 1 group M subtype B, UniProt P35961); experiment: Isothermal titration calorimetry binding to gp120; parameters: species or system HIV-1
T1 construct: into 30 μM of YU2 full-length gp120 at 25° C; made in house; host or cells: HEK 293F
Description: FIGS. 9A-9C illustrate cPT binding and thermodynamic profile of monomeric wild type gp120 YU-2 for cPTs 3 (FIGS. 9A and 9C) and 36 (FIGS. 9B and 9C). Compound solution, 390 μM (for 3) or 200 μM (for 36), was titrated in 8 μL steps into 30 μM of YU2 full-length gp120 at 25° C. in the reaction chamber of a VP-ITC instrument using 1×PBS buffer at pH 7.3. The resulting heat changes were integrated, and the values obtained were fitted to a quadratic binding equation (one site binding model).
cPT dissociation constants were determined at 25° C. on a VP-Isothermal Titration calorimeter (VP-ITC) system (MicroCal™, GE Healthcare, Freiburg). 200 μM (for 36) or 390 μM (for 3) compound solutions were in 8 μL steps titrated into 30 μM of wild type gp120 YU-2 at 25° C. using 1×PBS buffer at pH 7.3. The resulting heat change upon injection was integrated over a time range of 300 sec, and the obtained values were fitted to a standard single-site binding model using ORIGIN®.

[4] = read-out: HIV-1Bal.01 infection inhibition IC50, HIV-1Bal.01 pseudovirus, HOS.T4.R5 cells
[5] = read-out: HIV-1 IC50, HIV-1Bal.01 infection inhibition, Table 1

| Compound | IC50 [1, 4] | IC50 [1, 5] [nM] | further results |
| --- | --- | --- | --- |
| CC[C@H](C)[C@@H]1NC(=O)[C@H](CC(N)=O)NC(=O)[C@@H](N)CC(=O)NCCCC[C@@H](C(N)=O)NC(=O)[C@H](Cc2c[nH]c3ccccc23)NC(=O)[C@@H]2C[C@H](n3cc(-c4ccc(C(C)(C)C)cc4)nn3)CN2C1=O [compound 22] (H-DNI[X15]WK-NH2; lactam 1-6) | ~350 nM | 350 ± 25 | – |
| CC[C@H](C)[C@@H]1NC(=O)[C@H](CC(N)=O)NC(=O)[C@@H](N)CC(=O)NCCCC[C@@H](C(N)=O)NC(=O)[C@H](Cc2c[nH]c3ccccc23)NC(=O)[C@@H]2C[C@H](n3cc(C4C5CC6CC(C5)CC4C6)nn3)CN2C1=O (stereo partly shown) [compound 18] (H-DNI[X4]WK-NH2; lactam 1-6) | ~1300 nM | 1400 ± 200 | – |
| CC[C@H](C)[C@@H]1NC(=O)[C@H](CC(N)=O)NC(=O)[C@@H](N)CC(=O)NCCCC[C@@H](C(N)=O)NC(=O)[C@H](Cc2c[nH]c3ccccc23)NC(=O)[C@@H]2C[C@H](n3cc(Cc4ccc(C)c(C)c4)nn3)CN2C1=O [cPT 29] (H-DNI[X20]WK-NH2; lactam 1-6 (inferred); N-terminus and C-terminus assumed) | 8000 nM | – | – |
| CC[C@H](C)[C@@H]1NC(=O)[C@H](CC(N)=O)NC(=O)[C@@H](N)CC(=O)NCCCC[C@@H](C(N)=O)NC(=O)[C@H](Cc2c[nH]c3ccccc23)NC(=O)[C@@H]2C[C@H](n3cc(-c4ccc(-c5cccs5)s4)nn3)CN2C1=O [compound 37] (H-DNI[X6]WK-NH2; lactam 1-6) | 405 nM | – | cytotoxicity (cell viability) [2]: no cytotoxicity was detected |
| CC[C@H](C)[C@@H]1NC(=O)[C@H](CC(N)=O)NC(=O)[C@@H](N)CC(=O)NCCCC[C@@H](C(N)=O)NC(=O)[C@H](Cc2c[nH]c3ccccc23)NC(=O)[C@@H]2C[C@H](n3cc(Cc4ccc(Cl)cc4)nn3)CN2C1=O [compound 31] (H-DNI[X8]WK-NH2; lactam 1-6) | ~1800 nM | 1800 ± 500 | – |
| CC[C@H](C)[C@@H]1NC(=O)[C@H](CC(N)=O)NC(=O)[C@@H](N)CC(=O)NCCCC[C@@H](C(N)=O)NC(=O)[C@H](Cc2c[nH]c3ccccc23)NC(=O)[C@@H]2C[C@H](n3cc(Cc4ccc(Cl)c(F)c4)nn3)CN2C1=O [cPT 32] (H-DNI[X12]WK-NH2; lactam 1-6) | ~7300 nM | 7300 ± 740 | – |
| CC[C@H](C)[C@@H]1NC(=O)[C@H](CC(N)=O)NC(=O)[C@@H](N)CC(=O)NCCCC[C@@H](C(N)=O)NC(=O)[C@H](Cc2c[nH]c3ccccc23)NC(=O)[C@@H]2C[C@H](n3cc(Cc4ccc(C)cc4)nn3)CN2C1=O [cPT 24] (H-DNI[X10]WK-NH2; lactam 1-6 (inferred); N-terminus and C-terminus assumed) | ~180 nM | 180 ± 9 | – |
| CC[C@H](C)[C@@H]1NC(=O)[C@H](CC(N)=O)NC(=O)CCC(=O)NCCCC[C@@H](C(N)=O)NC(=O)[C@H](Cc2c[nH]c3ccccc23)NC(=O)[C@@H]2C[C@H](n3cc(-c4ccc(-c5cccs5)cc4)nn3)CN2C1=O [compound 38] (NI[X1]WK-NH2; linker N-5 via Suc) | ~882 nM and 882 nM | – | fold decrease in potency compared to 36 ([1]; infection inhibition): about 8 fold |
| CC[C@H](C)[C@@H]1NC(=O)[C@H](CC(N)=O)NC(=O)[C@@H](N)CC(=O)NCCCC[C@@H](C(N)=O)NC(=O)[C@H](Cc2c[nH]c3ccccc23)NC(=O)[C@@H]2C[C@H](n3cc(C4=CC=C[CH]4[Fe][CH]4C=CC=C4)nn3)CN2C1=O (stereo partly shown) [cPT 3] (H-DNI[X17]WK-NH2; lactam 1-6) | – | – | Kd [3]: 415 nM |
| CC[C@H](C)[C@@H]1NC(=O)[C@H](CC(N)=O)NC(=O)[C@@H](N)CC(=O)NCCCC[C@@H](C(N)=O)NC(=O)[C@H](Cc2c[nH]c3ccccc23)NC(=O)[C@@H]2C[C@H](n3cc(Cc4ccc(C)cc4C)nn3)CN2C1=O [cPT 27] (H-DNI[X11]WK-NH2; lactam 1-6 (inferred); N-terminus and C-terminus assumed) | ~302 nM | 302 ± 50 | – |
| CC[C@H](C)[C@@H]1NC(=O)[C@H](CC(N)=O)NC(=O)[C@@H](N)CC(=O)NCCCC[C@@H](C(N)=O)NC(=O)[C@H](Cc2c[nH]c3ccccc23)NC(=O)[C@@H]2C[C@H](n3cc(-c4ccc(-c5ccccc5)cc4)nn3)CN2C1=O [compound 23] (H-DNI[X18]WK-NH2; lactam 1-6) | 269 nM | – | – |
| CC[C@H](C)[C@@H]1NC(=O)[C@H](CC(N)=O)NC(=O)[C@@H](N)CC(=O)NCCCC[C@@H](C(N)=O)NC(=O)[C@H](Cc2c[nH]c3ccccc23)NC(=O)[C@@H]2C[C@H](n3cc(-c4ccc(C(C)C)cc4)nn3)CN2C1=O [compound 21] (H-DNI[X16]WK-NH2; lactam 1-6) | ~900 nM | 900 ± 45 | – |
| CC[C@H](C)[C@@H]1NC(=O)[C@H](CC(N)=O)NC(=O)[C@@H](N)CC(=O)NCCCC[C@@H](C(N)=O)NC(=O)[C@H](Cc2c[nH]c3ccccc23)NC(=O)[C@@H]2C[C@H](n3cc(Cc4cccc(C)c4)nn3)CN2C1=O [cPT 26] (H-DNI[X7]WK-NH2; lactam 1-6 (inferred); N-terminus and C-terminus assumed) | ~220 nM | 220 ± 42 | – |
| CC[C@H](C)[C@@H]1NC(=O)[C@H](CC(N)=O)NC(=O)[C@@H](N)CC(=O)NCCCC[C@@H](C(N)=O)NC(=O)[C@H](Cc2c[nH]c3ccccc23)NC(=O)[C@@H]2C[C@H](n3cc([C]45[CH]6[CH]7[CH]8[CH]4[Fe]786549%10%11[CH]5[CH]4[CH]9[CH]%10[CH]5%11)nn3)CN2C1=O (stereo partly shown) [cPT 3] (H-DNI[X2]WK-NH2; lactam 1-6) | – | – | ΔH ([3]; ITC, 25° C.): -5.96 kcal/mol and -5.96 ± 0.13 kcal/mol; ΔS ([3]; ITC, 25° C.): 0.00922 kcal/mol; −TΔS ([3]; ITC, 25° C.): -2.75 kcal/mol |
| CC[C@H](C)[C@@H]1NC(=O)[C@H](CC(N)=O)NC(=O)[C@@H](N)CC(=O)NCCCC[C@@H](C(N)=O)NC(=O)[C@H](Cc2c[nH]c3ccccc23)NC(=O)[C@@H]2C[C@H](n3cc(Cc4ccccc4)nn3)CN2C1=O [compound 19] (H-DNI[X14]WK-NH2; lactam 1-6) | ~438 nM | 438 ± 12 | – |
| CC[C@H](C)[C@@H]1NC(=O)[C@H](CC(N)=O)NC(=O)[C@@H](N)CC(=O)NCCCC[C@@H](C(N)=O)NC(=O)[C@H](Cc2c[nH]c3ccccc23)NC(=O)[C@@H]2C[C@H](n3cc(-c4cc5ccccc5cn4)nn3)CN2C1=O [compound 30] (H-DNI[X13]WK-NH2; lactam 1-6) | ~5000 nM | 5000 ± 850 | – |
| CC[C@H](C)[C@@H]1NC(=O)[C@H](CC(N)=O)NC(=O)[C@@H](N)CC(=O)NCCCC[C@@H](C(N)=O)NC(=O)[C@H](Cc2c[nH]c3ccccc23)NC(=O)[C@@H]2C[C@H](n3cc(Cc4cc(C)cc(C)c4)nn3)CN2C1=O [cPT 28] (H-DNI[X19]WK-NH2; lactam 1-6 (inferred); N-terminus and C-terminus assumed) | 2000 nM | – | – |
| CCc1ccc(-c2cn([C@H]3C[C@H]4C(=O)N[C@@H](Cc5c[nH]c6ccccc56)C(=O)N[C@H](C(N)=O)CCCCNC(=O)C[C@H](N)C(=O)N[C@@H](CC(N)=O)C(=O)N[C@@H]([C@@H](C)CC)C(=O)N4C3)nn2)cc1 [compound 20] (H-DNI[X9]WK-NH2; lactam 1-6) | ~1200 nM | 1200 ± 500 | – |
| CC[C@H](C)[C@@H]1NC(=O)[C@H](CC(N)=O)NC(=O)[C@@H](N)CC(=O)NCCCC[C@@H](C(N)=O)NC(=O)[C@H](Cc2c[nH]c3ccccc23)NC(=O)[C@@H]2C[C@H](n3cc(Cc4ccccc4C)nn3)CN2C1=O [cPT 25] (H-DNI[X3]WK-NH2; lactam 1-6 (inferred); N-terminus and C-terminus assumed) | ~5100 nM | 5100 ± 220 | – |
| CC[C@H](C)[C@@H]1NC(=O)[C@H](CC(N)=O)NC(=O)[C@@H](N)CC(=O)NCCCC[C@@H](C(N)=O)NC(=O)[C@H](Cc2c[nH]c3ccccc23)NC(=O)[C@@H]2C[C@H](n3cc(Cc4ccc(I)cc4)nn3)CN2C1=O [cPT 33] (H-DNI[X5]WK-NH2; lactam 1-6) | ~6000 nM | 6000 ± 450 | – |
